Tests used:
Plasmodium falciparum [1] = test: Antiplasmodial activity against chloroquine-sensitive Plasmodium falciparum D10 infected in human A positive erythrocyte assessed as inhibition of parasite growth after 72 hrs by parasite lactate dehydrogenase assay; format: functional, organism-based; conditions: D10, 72 h
Plasmodium berghei = test: Antimalarial activity against chloroquine-sensitive Plasmodium berghei ANKA erythrocytic stage infected in BALB/c mouse assessed as reduction in parasitaemia at 100 mg/kg, ip qd after 5 days by Peters 4 days test; format: functional; design: scale not given: the % may be the effect or the level left
Plasmodium falciparum [2] = test: Antiplasmodial activity against chloroquine-resistant Plasmodium falciparum W2 infected in human A positive erythrocyte assessed as inhibition of parasite growth after 72 hrs by parasite lactate dehydrogenase assay; format: functional, organism-based; conditions: W2, 72 h
Mus musculus = test: Toxicity against BALB/c mouse infected with chloroquine-sensitive Plasmodium berghei ANKA at 100 mg/kg, ip qd for 5 days; format: organism-based; conditions: in vivo, 120 h
[3] = Cytotoxicity against mouse NIH/3T3 cells assessed as cell viability after 24 hrs by neutral red uptake assay; format: cell-based, NIH3T3; conditions: read-out: TC50

With C[C@@]12CCO[C@@H]1OOC1(C2)C2CC3CC(C2)CC1C3 (mixture of isomers) the IC50 (Plasmodium falciparum [1]) was 0.61 µM, the Activity (Plasmodium berghei) was 72.5% and the IC50 (Plasmodium falciparum [2]) was 0.16 µM. For the same compound, the Activity (Mus musculus) was “Non-toxic” and the CC50 at 24 h [3] was 150 µM.
C[C@@]12CCO[C@@H]1OOC1(CCCC1)C2 (racemic) showed an IC50 (Plasmodium falciparum [1]) of 0.84 µM and an IC50 (Plasmodium falciparum [2]) of 0.47 µM.
For C[C@@]12CCO[C@@H]1OOC1(CCCCC1)CC2 (racemic), the IC50 (Plasmodium falciparum [1]) was > 20 µM and the IC50 (Plasmodium falciparum [2]) was > 17 µM.
C[C@@]1(CC23CC4CC(CC(C4)C2)C3)C[C@]2(C)CCO[C@@H]2OO1 (mixture of isomers) gave an IC50 (Plasmodium falciparum [1]) of 0.85 µM and an IC50 (Plasmodium falciparum [2]) of 0.39 µM.
Work on C[C@@H]1CC[C@H]2[C@@H](C)C(=O)O[C@@H]3O[C@@]4(C)CC[C@@H]1[C@]32OO4 [ARTEMISININ] yielded an IC50 (Plasmodium falciparum [2]) of 0.012 µM.
Compound C1CCC2(CC1)OO[C@H]1CCCC[C@H]12 (racemic) has an IC50 (Plasmodium falciparum [1]) of 7.2 µM and an IC50 (Plasmodium falciparum [2]) of 3.2 µM.
With C[C@@]12CCO[C@@H]1OOC1(CCCCC1)C2 (racemic) the IC50 (Plasmodium falciparum [1]) was 5.3 µM and the IC50 (Plasmodium falciparum [2]) was 1.1 µM.
C[C@@]12CCO[C@@H]1OO[C@@](C)(C1CCCC1)C2 (mixture of isomers) gave an IC50 (Plasmodium falciparum [1]) of 1.2 µM and an IC50 (Plasmodium falciparum [2]) of 0.8 µM.
In the case of C[C@@]12CCO[C@@H]1OOC21CCCCC1 (racemic), the IC50 (Plasmodium falciparum [1]) is reported as 8.5 µM and the IC50 (Plasmodium falciparum [2]) is reported as > 25 µM.
Compound C[C@@]12CCO[C@@H]1OO[C@@](C)(C1CCCCC1)C2 (mixture of isomers) has an IC50 (Plasmodium falciparum [1]) of 0.39 µM and an IC50 (Plasmodium falciparum [2]) of 0.14 µM.

From ChEMBL document CHEMBL3734670, “Synthetic spirocyclic endoperoxides: new antimalarial scaffolds” (Medchemcomm, 2015)
